From patent US20210045385A1, “PYRIDAZINONE-SUBSTITUTED KETOXIMES AS HERBICIDES” (FMC Corporation, priority 2018, published 2021)

How the values were obtained:
Assay type in all cases: in vivo
[1] = tested on: Italian ryegrass (Lolium multiflorum); assay: Test A preemergence, visual plant response rating
Summary of the method: (§1)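 Ratings use a 0–100 visual scale (100 = complete control) against untreated controls, scored about 10 days after greenhouse treatment. Test chemicals were formulated in surfactant-containing non-phytotoxic solvent and applied either as soil spray after planting (preemergence) or onto one- to two-leaf, 2–10 cm plants (postemergence).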

[2] = tested on: barnyardgrass (Echinochloa crus-galli); assay: Test A preemergence, visual plant response rating
Summary of the method: as §1

[3] = tested on: foxtail, giant (giant foxtail, Setaria faberii); assay: Test A preemergence, visual plant response rating
Summary of the method: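 Formulated in a non-phytotoxic solvent mixture including surfactant, each test chemical was sprayed onto the soil surface after sowing, or onto seedlings 2 to 10 cm high. Roughly 10 days later, plants were compared with untreated controls and rated for injury from 0 (no effect) to 100 (complete control).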

kochia (Kochia scoparia) [4] = assay: Test A preemergence, visual plant response rating
Summary of the method: as §1

[5] = tested on: pigweed (Amaranthus retroflexus); assay: Test A preemergence, visual plant response rating
Summary of the method: as §1

[6] = tested on: ragweed (common ragweed, Ambrosia elatior); assay: Test A preemergence, visual plant response rating
Summary of the method: as §1

[7] = tested on: Italian ryegrass (Lolium multiflorum); assay: Test A postemergence, visual plant response rating
Summary of the method: as §1

[8] = tested on: barnyardgrass (Echinochloa crus-galli); assay: Test A postemergence, visual plant response rating
Summary of the method: as §1

[9] = tested on: blackgrass (Alopecurus myosuroides); assay: Test A postemergence, visual plant response rating
Summary of the method: as §1

corn (Zea mays) = assay: Test A postemergence, visual plant response rating
Summary of the method: as §1

[10] = tested on: foxtail, giant (giant foxtail, Setaria faberii); assay: Test A postemergence, visual plant response rating
Summary of the method: as §1

[11] = tested on: galium (catchweed bedstraw, Galium aparine); assay: Test A postemergence, visual plant response rating
Summary of the method: as §1

kochia (Kochia scoparia) [12] = assay: Test A postemergence, visual plant response rating
Summary of the method: as §1

[13] = tested on: pigweed (Amaranthus retroflexus); assay: Test A postemergence, visual plant response rating
Summary of the method: as §1

[14] = tested on: ragweed (common ragweed, Ambrosia elatior); assay: Test A postemergence, visual plant response rating
Summary of the method: as §1

[15] = tested on: wheat (Triticum aestivum); assay: Test A postemergence, visual plant response rating
Summary of the method: as §1

[16] = tested on: barnyardgrass (Echinochloa crus-galli); assay: Test B flooded paddy test, visual plant response rating; details: 250 g ai/ha, Flood, applied to paddy water, 2-leaf stage, evaluated after 13 to 15 days
Summary of the method: (§2)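 Compounds added straight into paddy water of pots flooded to 3 cm, with 2-leaf-stage plants of the four species; water level held throughout.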

[17] = tested on: ducksalad (Heteranhera limosa); assay: as above; details: 250 g ai/ha, Flood, applied to paddy water, 2-leaf stage, evaluated after 13 to 15 days
Summary of the method: as §2

rice (Oryza sativa) = assay: as above; details: 250 g ai/ha, Flood, applied to paddy water, 2-leaf stage, evaluated after 13 to 15 days
Summary of the method: as §2

[18] = tested on: sedge, umbrella (small-flower umbrella sedge, Cyperus difformis); assay: as above; details: 250 g ai/ha, Flood, applied to paddy water, 2-leaf stage, evaluated after 13 to 15 days
Summary of the method: as §2

[19] = 125 g ai/ha, preemergence, 0 to 100 scale, 0 no effect, 100 complete control
[20] = 500 g ai/ha Preemergence, approx. 10 days
[21] = 500 g ai/ha, postemergence, 0 is no effect, 100 is complete control
[22] = Postemergence, 125 g ai/ha, 0 to 100 scale (0 no effect, 100 complete control)

CON=C(c1cc(C)ccc1Cl)c1c(O)c(C)nn(C)c1=O [Compound 67]
Ryegrass, Italian plant response rating [1, 19]: 0 | Ryegrass, Italian plant response rating (0 to 100 scale) [1, 20]: 10 | Barnyardgrass plant response rating [2, 19]: 0 | Barnyardgrass plant response rating (0 to 100 scale) [2, 20]: 0 | Foxtail, Giant plant response rating [3, 19]: 0 | Foxtail, Giant plant response rating (0 to 100 scale) [3, 20]: 0 | Kochia plant response rating (kochia (Kochia scoparia) [4]; [19]): 0 | Kochia plant response rating (0 to 100 scale) (kochia (Kochia scoparia) [4]; [20]): 10 | Pigweed plant response rating [5, 19]: 0 | Pigweed plant response rating (0 to 100 scale) [5, 20]: 0 | Ragweed plant response rating [6, 19]: 10 | Ragweed plant response rating (0 to 100 scale) [6, 20]: 10 | Ryegrass, Italian plant response rating (0 to 100 scale) [7, 21]: 20 | Ryegrass, Italian plant response rating [7, 22]: 10 | Barnyardgrass plant response rating (0 to 100 scale) [8, 21]: 0 | Barnyardgrass plant response rating [8, 22]: 0 | Blackgrass plant response rating (0 to 100 scale) [9, 21]: 30 | Blackgrass plant response rating [9, 22]: 0 | Corn plant response rating (0 to 100 scale) (corn (Zea mays); [21]): 0 | Corn plant response rating (corn (Zea mays); [22]): 0 | Foxtail, Giant plant response rating (0 to 100 scale) [10, 21]: 10 | Foxtail, Giant plant response rating [10, 22]: 0 | Galium plant response rating (0 to 100 scale) [11, 21]: 80 | Galium plant response rating [11, 22]: 70 | Kochia plant response rating (0 to 100 scale) (kochia (Kochia scoparia) [12]; [21]): 20 | Kochia plant response rating (kochia (Kochia scoparia) [12]; [22]): 20 | Pigweed plant response rating (0 to 100 scale) [13, 21]: 30 | Pigweed plant response rating [13, 22]: 0 | Ragweed plant response rating (0 to 100 scale) [14, 21]: 70 | Ragweed plant response rating [14, 22]: 50 | Wheat plant response rating (0 to 100 scale) [15, 21]: 0 | Wheat plant response rating [15, 22]: 0 | Plant response rating, Barnyardgrass (0 to 100 scale, 0 is no effect, 100 is complete control) [16]: 0 | Plant response rating, Ducksalad (0 to 100 scale, 0 is no effect, 100 is complete control) [17]: 0 | Plant response rating, Rice (0 to 100 scale, 0 is no effect, 100 is complete control) (rice (Oryza sativa)): 0 | Plant response rating, Sedge, Umbrella (0 to 100 scale, 0 is no effect, 100 is complete control) [18]: 0
